# Assay results as given in PubChem BioAssay AID686957 (The Scripps Research Institute Molecular Screening Center, 2013).
# The source made the active and inactive calls. How the calls were made is not given here.
# Biological target: T-cell receptor (TCR)-CD3 interaction, human (TCR alpha chain TRAV4)
# Assay: potency of TCR-CD3 interaction inhibitors, dose response, biochemical, fluorescence, TAMRA-labeled TCR probe (AID 686957)
# Conditions: TCR-CD3 binding
row,Compound,IC50
1,Nc1nnc(CC(=O)N/N=C\c2cc([N+](=O)[O-])ccc2O)s1,> 94.1 µM (inactive)
2,N#C/C(=C\c1ccc(O)c(O)c1)C(=O)Nc1cccc2ncccc12,8.85 µM
3,COc1ccc(/C=C2\SC(=O)N(CC(=O)NNC(=O)c3ccccc3O)C2=O)cc1,> 94.1 µM (inactive)
4,CNC(=S)NNC(=O)c1cccn(Cc2cccc(Cl)c2)c1=O,> 94.1 µM (inactive)
5,O=C(N/N=C/c1sc(=O)[nH]c1-[n+]1ccc2ccccc2c1)c1ccccc1[O-],> 94.1 µM (inactive)
6,Cc1ccc(/C=C2\SC(=S)N(CCCC(=O)NNC(=O)c3ccccc3O)C2=O)cc1,> 94.1 µM (inactive)
7,Cc1c(NC(=S)N/N=C/c2cc([N+](=O)[O-])ccc2O)c(=O)n(-c2ccccc2)n1C,> 94.1 µM (inactive)
8,COc1cccc(C(=O)NNC(=O)c2ccc3ccccc3c2O)c1,> 94.1 µM (inactive)
9,Cc1ccc(O)c(/C=N/NC(=O)COc2ccc3c(C)cc(=O)oc3c2)c1,> 94.1 µM (inactive)
10,O=C(CNC(=O)c1ccccc1Br)N/N=C\c1cc([N+](=O)[O-])cc(Br)c1O,> 94.1 µM (inactive)
11,O=C1C(=Cc2cn(-c3ccccc3)nc2-c2ccc(OCc3ccccc3)cc2)SC(=S)N1CCS(=O)(=O)O,> 94.2 µM (inactive)
12,O=C(Nc1cccc(S(=O)(=O)NC2=NCCC2)c1)c1cc(-c2ccco2)nc2ccccc12,> 94.1 µM (inactive)
13,Cc1onc(-c2ccccc2)c1C(=O)NN=Cc1cc(Cl)cc(Cl)c1O,> 94 µM (inactive)
14,NC(=O)CCC1NC(=S)N(Cc2ccccc2)C1=O (configuration not stated),> 94.1 µM (inactive)
15,Cc1cc([N+](=O)[O-])cc(/C=N/n2c(C)nc3ccccc3c2=O)c1O,> 94 µM (inactive)
16,Cc1ccc(-n2c(O)c(/C=N/NC(=O)C3COc4ccccc4O3)c3ccccc3c2=O)cc1 (configuration not stated),> 94.1 µM (inactive)
17,O=C(N/N=C/c1c(O)n(Cc2ccco2)c(=O)[nH]c1=O)c1ccccc1O,> 94 µM (inactive)
18,O=c1oc2ccccc2c2oc3cc(O)c(O)cc3c12,> 94.2 µM (inactive)
19,O=C(CN1C(=O)S/C(=C\c2ccccc2)C1=O)NNC(=O)c1ccccc1O,> 94.1 µM (inactive)
20,COc1ccc(C(=O)NNC(=S)NC(=O)c2cccnc2)cc1,> 94.1 µM (inactive)
21,CC(=O)c1cccc(NC(=O)C(OC(=O)c2cccc(S(=O)(=O)N(C)c3ccccc3)c2)c2ccccc2)c1 (configuration not stated),inactive
22,O=C(NC(=S)NNC(=O)c1cccs1)c1ccccc1,> 94.1 µM (inactive)
23,COc1cc(O)c(/C=N/NC(=O)c2ccncc2)c(OC)c1[N+](=O)[O-],> 94.1 µM (inactive)

row,Compound,IC50
1,Cc1ccc(/C=C2\SC(=S)N(CCC(=O)NNC(=O)c3ccccc3O)C2=O)cc1,> 94.1 µM (inactive)
2,CNC(=S)NNC(=O)c1cccn(Cc2ccc(Cl)cc2Cl)c1=O,> 94.1 µM (inactive)
3,C/C(=N\NC(=O)c1nnn(-c2nonc2N)c1CN(C)c1ccccc1)c1ccccc1O,> 94.1 µM (inactive)
4,Cc1noc(C)c1COc1ccc(C(=O)NNC(=O)c2ccccc2O)cc1,> 94.1 µM (inactive)
5,CC1(C)CC2CC(C)(CN2S(=O)(=O)c2ccc(C(=O)Nc3cccc(S(=O)(=O)N4CCOCC4)c3)cc2)C1 (configuration not stated),inactive
6,Cc1cc(=O)oc2cc(OCC(=O)N/N=C/c3cc([N+](=O)[O-])ccc3O)ccc12,> 94.1 µM (inactive)
7,Nc1ccc([N+](=O)[O-])cc1C(=O)NNC(=O)c1ccco1,> 94.1 µM (inactive)
8,O=C1C=C(O)c2c(O)cc(O)c(O)c2C1=O,> 94.1 µM (inactive)
9,CC1CCCC(C)N1/N=C/c1ccc(O)c(O)c1 (configuration not stated),> 94.1 µM (inactive)
10,Cc1ccc(OCC(=O)c2c(N)n(C)c(=O)n(C)c2=O)c([N+](=O)[O-])n1,inactive
11,CCOC(=O)C1=C(CC)Nc2ccccc2N=C1NC(=O)Nc1ccc(Cl)c(Cl)c1,inactive
12,COC(=O)c1cc(O)c(O)c(O)c1,> 94.3 µM (inactive)
13,O=C(N/N=C/c1cc([N+](=O)[O-])ccc1O)c1cccc(N2CCCC2=O)c1,> 94.1 µM (inactive)
14,O=C(CCN1CCN(c2ccccc2)CC1)N/N=C/c1ccc(O)c(O)c1O,> 94.1 µM (inactive)
15,O=C(NNC(=S)NC1CCCCC1)c1ccccc1O,> 94.1 µM (inactive)
16,O=C(CP(=O)(c1ccccc1)c1ccccc1)N/N=C/c1cc(Br)cc(Br)c1O,> 94.2 µM (inactive)
17,Cn1c(SCC(=O)NNC(=O)c2ccccc2O)nnc1-c1ccccc1,> 94.2 µM (inactive)
18,COc1cc(/C=N/NC(=O)c2cc(O)cc(O)c2)ccc1OC(=O)c1ccccc1,> 94.1 µM (inactive)
19,CCCCCCn1c(=O)c(C(=O)Nc2ncccc2O)c(O)c2ccccc21,> 94.2 µM (inactive)
20,Cn1c(=O)c(C(=O)NNC(=O)c2ccccc2F)c(O)c2ccccc21,> 94.1 µM (inactive)
21,O=C(NNC(=O)c1ccccc1O)c1ccc(-c2ccc([N+](=O)[O-])cc2)o1,> 94.1 µM (inactive)
22,O=C(NNC(=O)c1cc(Cl)ccc1O)c1cccc(S(=O)(=O)N2CCOCC2)c1,> 94.1 µM (inactive)
23,NNC(=O)c1nc[nH]c1C(=O)Nc1ccccn1,> 94.2 µM (inactive)

row,Compound,IC50
1,Cc1cc2oc3ccc(NCCCn4ccnc4)cc3c(=O)c2cc1C,> 94.1 µM (inactive)
2,O=C(N/N=C/c1cc([N+](=O)[O-])ccc1O)/C(=C\c1cccs1)NC(=O)c1ccccc1,> 94.1 µM (inactive)
3,COc1ccc(C(=O)Nc2nnc(CC(=O)N/N=C/c3ccc(O)cc3O)s2)cc1,> 94.1 µM (inactive)
4,COc1cccc(/C=C2/SC(=S)N(CC(=O)NNC(=O)c3ccccc3O)C2=O)c1,> 94.1 µM (inactive)
5,Nc1c(C(=O)NCC2CCCO2)sc2nc3c(c(-c4ccco4)c12)CC/C3=C\c1ccco1 (configuration not stated),inactive
6,Cc1nc(S/C(=C/c2ccc(OCc3ccc(C(=O)O)cc3)cc2)C(=O)O)n[nH]1,> 94.1 µM (inactive)
7,Nc1ncnc2oc(-c3ccco3)c(-c3ccco3)c12,inactive
8,O=Nc1[nH]c(=O)c(/C=C(\O)c2ccccc2)nc1NO,> 94.2 µM (inactive)
9,O=C(N/N=C/c1ccoc1)c1cc(O)cc(O)c1,> 94 µM (inactive)
10,Cc1cc([N+](=O)[O-])cc(/C=N\NC(=O)C2COc3ccccc3O2)c1O (configuration not stated),> 94.2 µM (inactive)
11,CCn1c(SCC(=O)c2ccc(O)c(O)c2)nnc1-c1ccccc1OC,> 94.1 µM (inactive)
12,O=C(N/N=C/c1cccnc1)c1cc(O)c(O)c(O)c1,> 94 µM (inactive)
13,CCc1n[nH]c(=S)n1/N=C/c1cc(OC)cc([N+](=O)[O-])c1O,inactive
14,O=C(N/N=C/c1cc(Cl)cc([N+](=O)[O-])c1O)c1cccc(S(=O)(=O)N2CCOCC2)c1,> 94.1 µM (inactive)
15,O=C(NNC(=O)c1c(O)c2ccccc2[nH]c1=O)c1ccccc1,> 94.1 µM (inactive)
16,O=C(NNC(=O)c1ccc2ccccc2c1O)Nc1ccc(F)cc1,> 94.1 µM (inactive)
17,Cc1cc(Br)cc(/C=N/NC(=O)c2ccc3c(c2)OCO3)c1O,> 94.1 µM (inactive)
18,Cc1nc2ccccc2n1CC(=O)c1ccc(O)c(O)c1,> 94 µM (inactive)
19,O=C(O)c1ccccc1NS(=O)(=O)c1ccc(N/N=C/c2ccc(O)c(O)c2)c([N+](=O)[O-])c1,inactive
20,C=CCn1c(O)c(N=NC(=O)CNC(=O)/C=C/c2ccco2)c2ccccc21,> 94.1 µM (inactive)
21,COc1ccc(NC(=O)NNC(=O)c2ccc3ccccc3c2O)cc1OC,> 94.1 µM (inactive)
